Values joined by “and” are separate entries in the source; they are usually repeats but may differ in a detail not shown here. Identical values can stand only once. “Also recorded” adds a separate entry of the source. Like-named read-outs stand apart in the source and are kept apart here.
Tests used:
HIV-1 integrase [1] = molecular target: T1, HIV-1 integrase (Human immunodeficiency virus type 1 group M subtype B (isolate HXB2) (HIV-1), UniProt P04585); experiment: biochemical; type: biochemical
Method: The effect of each compound on HIV integrase activity was assayed using the “HIV-1 Integrase Assay Kit” version 2.0, catalogue number EZ-1700 obtained from XpressBio Life Science Products. Immediately prior to the start of the assay, both compounds were dissolved in dimethyl sulfoxide (DMSO) and used immediately in the HIV integration assay. The assay was performed according to the instructions listed by the manufacturer (XpressBio Life Science Products, Maryland, USA). In brief, the required streptavidin-coated strip wells were coated with DS oligo and placed overnight at 4° C. The plates were then incubated with integrase and followed by the addition of test articles at the desired concentration. The plates were developed using the supplied HRP antibody and TMB peroxidase substrate as per the manufacturer's instructions. The reactions were stopped with TMB stop solution and immediately read (<10 min) using a VICTOR XXX. The absorbance of each well was read at 450 nm for 0.5 sec. All measurements were performed in triplicate.
The background absorbance was subtracted from the raw data of each sample to yield “background corrected” absorbance values. […] The CV=% SD for the 100% integrase alone control.
To determine the IC50 of each test compound, non-linear regression analysis was used.
Because the top and the bottom plateaus can be defined by solid control data (eg. sodium azide), the data was fitted to a normalized model in order to calculate the IC50. […] Since 6 compound concentrations were tested in triplicate, the data was analyzed using the standard slope model, in contrast with the variable slope model.

HIV-1 integrase [2] = molecular target: T1, HIV-1 integrase; experiment: biochemical; type: biochemical; remark: listed apart in the source
Method: The capacity of the compound to inhibit HIV integrase in a cell-free system was assessed. An HIV Integrase Assay System (XpressBio Life Science Products; Thurmont, Md., www.expressbio.com) was used. In brief, double-stranded HIV-1 donor substrate (the U5 long terminal repeat) was immobilized in 96-well plates. Recombinant HIV-1 integrase protein was added, along with an oligonucleotide target substrate. The integrase cleaves the donor substrate and integrates it into the target substrate, which is now in solution phase—the integrated product (the amount is indicative of integrase activity) was detected using an antibody specific for the recombinant target/donor sequence. Inhibitors added along with the donor substrate reduced the amount of product. […] The capacity of a compound known to inhibit HIV integrase activity (NaN3) was assessed as a positive control. All assessed inhibitions were compared to controls treated with vehicle only (compounds dissolved in 100% DMSO, then diluted in buffer to a maximum DMSO concentration of 0.1% DMSO).
However, it should be kept in mind that indirect HIV integrase inhibition (which might possibly occur in living cells) will not be detected.
COTI-HIV1Doxo was assayed for HIV-1 integrase activity, as described above. All measurements were made in quadruplicate (n=4) to allow statistical analysis of significance.

[3] = all concentrations tested (lowest 1 nM)

Cn1cnc(-c2nnc(Cc3ccc(F)cc3)o2)c(O)/c1=N\O [COTI-HIV1DOxime, 6-[5-(4-fluoro-benzyl)-[1,3,4]oxadiazol-2-yl]-5-hydroxy-3-methyl-3H-pyrimidin-4-one oxime]
IC50 (HIV-1 integrase [1]): 58.7 µM
inhibition of HIV-1 integrase (HIV-1 integrase [1]; [3]): significantly inhibited HIV-1 integrase; also recorded: significantly inhibit HIV-1 integrase activity

Cn1cnc(-c2nnc(Cc3ccc(F)cc3)o2)c(O)c1=O [COTI-HIV1Doxo, 6-[5-(4-Fluoro-benzyl)-[1,3,4]oxadiazol-2-yl]-5-hydroxy-3-methyl-3H pyrimidin-4-one]
IC50 (HIV-1 integrase [2]): ~10 µM
effect on HIV-1 integrase activity (HIV-1 integrase [2]; 1 nM, listed as COTI-HIV-1 ketone derivative): enhanced HIV-1 integrase activity; also recorded: slightly but significantly enhanced HIV-1 integrase activity
effect on HIV-1 integrase activity (HIV-1 integrase [2]; 100 nM): inhibited HIV-1 integrase; also recorded: significantly reduce HIV-1 integrase activity
effect on HIV-1 integrase activity (HIV-1 integrase [2]; all higher tested concentrations (up to 100 μM)): significantly decreased HIV-1 integrase activity
complete inhibition of integrase activity (HIV-1 integrase [2]; up to 100 μM): not observed

Cn1nc(-c2nnc(Cc3ccc(F)cc3)o2)/c(=N\O)c2ncccc21 [COTI-HIV1Oxime]
IC50 (HIV-1 integrase [1]): 23.9 µM
percent of the total control activity (HIV-1 integrase [1]; at 100 μM): 34.82%
reduction in HIV-1 integrase activity (HIV-1 integrase [1]; at 100 μM): At least 50%
inhibition of HIV-1 integrase (HIV-1 integrase [1]; at 100 μM, listed as COTI-HIV28233): significantly inhibited HIV-1 integrase; also recorded: significantly reduce activity
inhibition of HIV-1 integrase activity (HIV-1 integrase [1]; at low concentrations): modestly inhibit HIV-1 integrase activity

Cn1nc(C(=O)NCc2ccc(F)cc2)/c(=N\O)c2ncccc21 [COTI-HIV28236]
IC50 (HIV-1 integrase [1]): 14 µM
inhibition of HIV-1 integrase (HIV-1 integrase [1]; [3]): significantly inhibited HIV-1 integrase; also recorded: significantly inhibit HIV-1 integrase activity
reduction in HIV-1 integrase activity (HIV-1 integrase [1]; at 100 μM): At least 50%

[N-]=[N+]=[N-].[Na+] [sodium azide, reference compound]
effect of positive control on HIV-1 integrase activity (HIV-1 integrase [1]; positive control): effectively decrease HIV-1 integrase activity
calculated IC50 of sodium azide controls (HIV-1 integrase [1]; two controls run in parallel): 0.12% and 0.14%
percent control activity (HIV-1 integrase [1]; with 10% sodium azide): 0%
effect of positive control on HIV-1 integrase activity (HIV-1 integrase [2]; 1.0% or 3.3%): effectively decreased HIV-1 integrase activity

From US8987272B2, “Compounds and method for treatment of HIV” (priority 2010, dated 2015)
